IC50 data for 6 compounds are collected here from patent publication US20170119776A1, “CHIRAL 2,5-DISUBSTITUTED CYCLOPENTANECARBOXYLIC ACID DERIVATIVES AND USE THEREOF” (BAYER PHARMA AKTIENGESELLSCHAFT, priority 2014, published 2017).

Assay type in all cases: biochemical
Assay [1] addresses T1, MMP-8 of the rat (Rattus norvegicus, UniProt O88766).
T1 construct: purchased R&D Systems 3245-MP
Kind of assay: In vitro MMP-8 inhibition test of the rat. The source says:
(§1) The activity strength of the compounds according to the invention towards other MMPs (and therefore their selectivity) is likewise ascertained in in vitro inhibition tests. The MMP-mediated amidolytic cleavage of a suitable peptide substrate also leads here to a fluorescent light increase. The signal intensity of the fluorescent light is directly proportional to the enzyme activity. The active concentration of a test compound at which half of the enzyme is inhibited (50% signal intensity of the fluorescent light) is given as IC50 value.
Recombinant MMP-8 of the rat (R&D Systems, 3245-MP) is chemically activated in accordance with the manufacturer's instructions using APMA. […] of the test compound to be analysed (as a solution in DMSO, suitable concentrations e.g. 1 nM to 30 μM) is pipetted into 24 μl of activated enzyme (final concentration e.g. 1 nM) in reaction buffer (50 mM Tris/HCl pH 7.5, 10 mM CaCl2, 150 mM NaCl, 0.05% Brij®-35) in a white 384-hole microtiter plate (MTP). The enzymatic reaction is started by adding the intramolecularly quenched substrate Mca-Lys-Pro-Leu-Gly-Leu-Dpa(Dnp)-Ala-Arg-NH2 (final concentration e.g. 5 μM; R&D Systems, ES-010), such that a total test volume of 50 μl results. The progress of the MMP-8 reaction is measured by measuring the fluorescence intensity (excitation 320 nm, emission 410 nm) over a suitable period (e.g. over 120 min at a temperature of 32° C.).
Tables 3A and 3B below give the IC50 values from these tests for the inhibition of rodent MMPs for representative embodiment examples of the present invention and also for two structurally related comparison compounds from the prior art (as racemate and separated enantiomer)→(in part as average values from several independent individual determinations and rounded to two significant places). The IC50 values were determined for racemates and enantiomers from differently generated DMSO stock solutions. Whereas an automatically created DMSO stock solution from the internal substance logistics was used for racemates by means of a standard method, in the case of enantiomers, in each case a freshly produced, manually prepared DMSO stock solution was used for a more precise direct comparison of the enantiomers with one another.

In assay [2] the target is T2, human macrophage elastase (HME/hMMP-12) (Homo sapiens, UniProt P39900).
T2 construct: 0.5 nM HME; purchased R&D Systems 917-MP
In words: In vitro HME inhibition test (standard / high-sensitivity), without BSA. Particulars: absence of serum albumin (BSA). An excerpt:
The activity of the compounds according to the invention towards HME (MMP-12) is ascertained in an in vitro inhibition test. The HME-mediated amidolytic cleavage of a suitable peptide substrate leads herein to a fluorescent light increase. The signal intensity of the fluorescent light is directly proportional to the enzyme activity. The active concentration of a test compound at which half of the enzyme is inhibited (50% signal intensity of the fluorescent light) is given as IC50 value.
In a 384 hole microtiter plate, in a test volume of in total 41 μl of the test buffer (0.1 M HEPES pH 7.4, 0.15 M NaCl, 0.03 M CaCl2, 0.004 mM ZnCl2, […], 0.005% Brij®), the enzyme (0.5 nM HME; R&D Systems, 917-MP, autocatalytic activation according to the manufacturer's instructions) and the intramolecularly quenched substrate [5 μM Mca-Pro-Leu-Gly-Leu-Glu-Glu-Ala-Dap(Dnp)-NH2; Bachem, M-2670] are incubated in the absence and presence of the test substance (as solution in DMSO) for two hours at 37° C. The fluorescent light intensity of the test batches is measured (excitation 323 nm, emission 393 nm). The IC50 values are ascertained by plotting the fluorescent light intensity against the active ingredient concentration.
If subnanomolar IC values are produced for high potent test substances in the standard HME inhibition test described above, then a modified test is used for their more precise determination. Here, a ten-fold lower enzyme concentration is used (final concentration e.g. 0.05 nM), in order to achieve an increased sensitivity of the test. The incubation time of the test is accordingly chosen to be longer (e.g. 16 hours).
Table 1 below gives the IC50 values from these HME inhibition tests for the working examples of the present invention and also for two structurally related comparison compounds from the prior art (as racemate or separated enantiomers)→(sometimes as average values from several independent individual determinations and rounded to two significant places). The IC50 values were determined for racemates and enantiomers from differently generated DMSO stock solutions. Whereas an automatically created DMSO stock solution from the internal substance logistics was used for racemates by means of a standard method, for enantiomers and for a more precise direct comparison of the enantiomers with one another, in each case a freshly produced, manually prepared DMSO stock solution was used.

In assay [3] the target is T3, MMP-9 (Homo sapiens, UniProt P14780).
T3 construct: purchased R&D Systems 911-MP
In words: In vitro MMP-9 inhibition test.
From the text: as §1
Recombinant MMP-9 (R&D Systems, 911-MP) is chemically activated in accordance with the manufacturer's instructions using APMA. 1 μl of the test compound to be analysed (as a solution in DMSO, suitable concentrations e.g. 1 nM to 30 μM) is pipette into 24 μl of activated enzyme (final concentration e.g. 0.1 nM) in reaction buffer (50 mM Tris/HCl pH 7.5, 10 mM CaCl2, 150 mM NaCl, 0.05% Brij®-35) in a white 384-hole microtiter plate (MTP). The enzymatic reaction is started by adding the intramolecularly quenched substrate Mca-Pro-Leu-Gly-Leu-Dpa(Dnp)-Ala-Arg-NH2 (final concentration e.g. 10 μM; R&D Systems, ES-001), such that a total test volume of 50 μl results. The progress of the MMP-9 reaction is measured by measuring the fluorescence intensity (excitation 320 nm, emission 410 nm) over a suitable period (e.g. over 120 min at a temperature of 32° C.).
The IC50 values were determined for racemates and enantiomers from differently generated DMSO stock solutions. Whereas an automatically produced DMSO stock solution from the internal substance logistics was used for racemates by means of a standard method, in the case of enantiomers a freshly produced, manually prepared DMSO stock solution was used in each case for a more precise direct comparison of the enantiomers with one another.

T3 sequence (P14780 107-707 limits assumed): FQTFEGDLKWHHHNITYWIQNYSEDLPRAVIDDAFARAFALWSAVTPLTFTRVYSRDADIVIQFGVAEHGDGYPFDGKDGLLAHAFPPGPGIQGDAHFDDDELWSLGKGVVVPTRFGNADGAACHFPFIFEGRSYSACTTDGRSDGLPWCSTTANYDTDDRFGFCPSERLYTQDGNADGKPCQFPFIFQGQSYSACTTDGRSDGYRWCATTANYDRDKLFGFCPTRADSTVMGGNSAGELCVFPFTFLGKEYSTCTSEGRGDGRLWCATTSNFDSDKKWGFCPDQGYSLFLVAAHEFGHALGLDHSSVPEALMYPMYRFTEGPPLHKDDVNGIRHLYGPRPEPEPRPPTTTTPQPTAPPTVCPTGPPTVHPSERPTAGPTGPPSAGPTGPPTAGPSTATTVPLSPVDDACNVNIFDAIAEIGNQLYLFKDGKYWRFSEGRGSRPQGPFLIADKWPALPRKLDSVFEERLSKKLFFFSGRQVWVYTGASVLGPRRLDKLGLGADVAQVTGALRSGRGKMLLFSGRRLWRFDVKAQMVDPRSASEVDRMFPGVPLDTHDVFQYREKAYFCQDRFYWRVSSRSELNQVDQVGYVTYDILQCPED
T1 sequence (O88766 102-466): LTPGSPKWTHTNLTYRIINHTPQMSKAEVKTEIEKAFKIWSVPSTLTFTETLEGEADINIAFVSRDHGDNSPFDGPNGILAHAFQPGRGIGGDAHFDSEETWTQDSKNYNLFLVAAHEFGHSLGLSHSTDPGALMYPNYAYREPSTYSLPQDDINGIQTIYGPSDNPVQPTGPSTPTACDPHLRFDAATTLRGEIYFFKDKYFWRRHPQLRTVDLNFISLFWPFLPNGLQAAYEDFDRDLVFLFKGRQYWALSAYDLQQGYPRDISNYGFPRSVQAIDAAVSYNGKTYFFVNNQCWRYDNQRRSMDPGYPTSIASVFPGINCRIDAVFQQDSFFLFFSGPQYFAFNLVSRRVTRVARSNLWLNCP
T2 sequence (P39900 106-470): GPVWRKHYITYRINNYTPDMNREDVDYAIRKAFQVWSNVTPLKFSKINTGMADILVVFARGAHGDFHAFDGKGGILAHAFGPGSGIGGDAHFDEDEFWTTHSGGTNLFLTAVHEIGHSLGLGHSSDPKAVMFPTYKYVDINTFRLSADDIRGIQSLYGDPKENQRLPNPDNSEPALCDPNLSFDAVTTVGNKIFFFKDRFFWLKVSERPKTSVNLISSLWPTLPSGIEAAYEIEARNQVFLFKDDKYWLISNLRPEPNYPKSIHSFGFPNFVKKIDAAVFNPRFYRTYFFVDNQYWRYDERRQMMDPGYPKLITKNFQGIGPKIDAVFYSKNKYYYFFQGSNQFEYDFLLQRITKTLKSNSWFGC

On to `O=C(O)[C@H]1[C@H](Cn2nnc3ccccc3c2=O)CC[C@@H]1C(=O)c1ccc(OCc2ccccc2)cc1` [Example 2, (+)-(1S,2S,5R)-2-[4-(Benzyloxy)benzoyl]-5-[(4-oxo-1,2,3-benzotriazin-3(4H)-yl)methyl]cyclopentanecarboxylic acid], for which the IC50 in assay [1] is 38.5 nM; in assay [2], 0.071 nM; in assay [3], 23 nM.
As to `O=C(O)[C@@H]1[C@@H](Cn2nnc3ccccc3c2=O)CC[C@H]1C(=O)c1ccc(-c2ccc(Cl)cc2)cc1` (single isomer, unassigned; enantiomer 2) [Comparative Example A-3, (1RS,2RS,5SR)-2-[(4′-Chlorobiphenyl-4-yl)carbonyl]-5-[(4-oxo-1,2,3-benzotriazin-3(4H)-yl)methyl]cyclopentanecarboxylic acid (enantiomer 2)], the IC50 in assay [1] worked out at 1.4 nM; in assay [2], 0.018 nM; in assay [3] it was 1.1 nM.
For `CCCCCOc1ccc(C(=O)CC(CCn2nnc3ccccc3c2=O)C(=O)O)cc1` (single isomer, unassigned; enantiomer 1) [Comparative Example B-2, (+)-4-Oxo-2-[2-(4-oxo-1,2,3-benzotriazin-3(4H)-yl)ethyl]-4-[4-(pentyloxy)phenyl]butanoic acid (enantiomer 1)] the same measures were 1040 nM, 1.6 nM and 625 nM.
The matching figures for `CCCCCOc1ccc(C(=O)CC(CCn2nnc3ccccc3c2=O)C(=O)O)cc1` (racemic) [Comparative Example B-1, (+/−)-4-Oxo-2-[2-(4-oxo-1,2,3-benzotriazin-3(4H)-yl)ethyl]-4-[4-(pentyloxy)phenyl]butanoic acid (racemate)]: 3500 nM, 1.5 nM and 1400 nM.
`O=C(O)[C@H]1[C@H](Cn2nnc3ccccc3c2=O)CC[C@@H]1C(=O)c1ccc(-c2ccc(Cl)cc2)cc1` (racemic) [Comparative Example A-1, (1RS,2RS,5SR)-2-[(4′-chlorobiphenyl-4-yl)carbonyl]-5-[(4-oxo-1,2,3-benzotriazin-3(4H)-yl)methyl]cyclopentanecarboxylic acid (racemate)]: the IC50 in assay [1] was found to be 1.4 nM; in assay [2], 0.043 nM; in assay [3] it was 1.9 nM.
For `O=C(O)[C@H]1[C@H](Cn2nnc3ccccc3c2=O)CC[C@@H]1C(=O)c1ccc(OCc2ccccc2)cc1` (racemic) [Example 1, (+/−)-(1RS,2RS,5SR)-2-[4-(Benzyloxy)benzoyl]-5-[(4-oxo-1,2,3-benzotriazin-3(4H)-yl)methyl]cyclopentanecarboxylic acid (racemate)] the same measures were 100 nM, 0.059 nM and 30 nM.

By IC50 is commonly meant the point on the concentration scale where inhibition reaches its midpoint. A lower IC50 goes with higher potency.
